Source: US12552775B2, “Compounds and uses thereof” (Foghorn Therapeutics Inc., priority 2020, dated 2026)

Legend:
[1] = molecular target: T1, HiBit-BRM fusion protein (Homo sapiens, UniProt P51531); test: HiBiT-BRM cell-based degradation assay (Nano-Glo HiBiT Lytic Detection, 24 h); conditions: stable HeLa cell line expressing HiBiT-BRM, top dose 30 μM
T1 construct: expressed in transfected cells
Experimental: (§1) Procedure: A stable HeLa cell line expressing HiBiT-BRM was generated. On day 0, 5000 cells were seeded in 40 μL of media into each well of 384-well cell culture plates. On day 1, cells were treated with 120 nL DMSO or 120 nL of 3-fold serially DMSO-diluted compounds (10 points in duplicate with 30 μM as final top dose). Subsequently plates were incubated for 24 h in a standard tissue culture incubator and equilibrated at room temperature for 15 minutes. Nano-Glo HiBiT Lytic Detection System (Promega N3050) reagent was freshly prepared and 20 ul was added to each well. Upon addition of this LgBit-containing reagent, the HiBiT and LgBiT proteins associate to form the luminescent NanoBiT luciferase. The plates were shaken for 10 minutes at room temperature and the bioluminescence read using an EnVision plate reader (PerkinElmer).
(§2) The degradation % was calculated using the following formula: % degradation=100%−100%×(Lumsample−LumLC)/(LumHC−LumLC). DMSO treated cells are employed as High Control (HC) and 2 μM of a known BRM/BRG1 degrader standard treated cells are employed as Low Control (LC).

[2] = molecular target: T2, HiBit-BRG1 fusion protein (Homo sapiens, UniProt P51532); test: HiBiT-BRG1 cell-based degradation assay (Nano-Glo HiBiT Lytic Detection, 24 h); conditions: stable HeLa cell line expressing HiBit-BRG1 and LgBit, top dose 30 μM, read-out: BRG1 HiBit Degradation Maximum (%)
T2 construct: expressed in transfected cells
T2 sequence (P51532 whole entry, the tested form may be a part): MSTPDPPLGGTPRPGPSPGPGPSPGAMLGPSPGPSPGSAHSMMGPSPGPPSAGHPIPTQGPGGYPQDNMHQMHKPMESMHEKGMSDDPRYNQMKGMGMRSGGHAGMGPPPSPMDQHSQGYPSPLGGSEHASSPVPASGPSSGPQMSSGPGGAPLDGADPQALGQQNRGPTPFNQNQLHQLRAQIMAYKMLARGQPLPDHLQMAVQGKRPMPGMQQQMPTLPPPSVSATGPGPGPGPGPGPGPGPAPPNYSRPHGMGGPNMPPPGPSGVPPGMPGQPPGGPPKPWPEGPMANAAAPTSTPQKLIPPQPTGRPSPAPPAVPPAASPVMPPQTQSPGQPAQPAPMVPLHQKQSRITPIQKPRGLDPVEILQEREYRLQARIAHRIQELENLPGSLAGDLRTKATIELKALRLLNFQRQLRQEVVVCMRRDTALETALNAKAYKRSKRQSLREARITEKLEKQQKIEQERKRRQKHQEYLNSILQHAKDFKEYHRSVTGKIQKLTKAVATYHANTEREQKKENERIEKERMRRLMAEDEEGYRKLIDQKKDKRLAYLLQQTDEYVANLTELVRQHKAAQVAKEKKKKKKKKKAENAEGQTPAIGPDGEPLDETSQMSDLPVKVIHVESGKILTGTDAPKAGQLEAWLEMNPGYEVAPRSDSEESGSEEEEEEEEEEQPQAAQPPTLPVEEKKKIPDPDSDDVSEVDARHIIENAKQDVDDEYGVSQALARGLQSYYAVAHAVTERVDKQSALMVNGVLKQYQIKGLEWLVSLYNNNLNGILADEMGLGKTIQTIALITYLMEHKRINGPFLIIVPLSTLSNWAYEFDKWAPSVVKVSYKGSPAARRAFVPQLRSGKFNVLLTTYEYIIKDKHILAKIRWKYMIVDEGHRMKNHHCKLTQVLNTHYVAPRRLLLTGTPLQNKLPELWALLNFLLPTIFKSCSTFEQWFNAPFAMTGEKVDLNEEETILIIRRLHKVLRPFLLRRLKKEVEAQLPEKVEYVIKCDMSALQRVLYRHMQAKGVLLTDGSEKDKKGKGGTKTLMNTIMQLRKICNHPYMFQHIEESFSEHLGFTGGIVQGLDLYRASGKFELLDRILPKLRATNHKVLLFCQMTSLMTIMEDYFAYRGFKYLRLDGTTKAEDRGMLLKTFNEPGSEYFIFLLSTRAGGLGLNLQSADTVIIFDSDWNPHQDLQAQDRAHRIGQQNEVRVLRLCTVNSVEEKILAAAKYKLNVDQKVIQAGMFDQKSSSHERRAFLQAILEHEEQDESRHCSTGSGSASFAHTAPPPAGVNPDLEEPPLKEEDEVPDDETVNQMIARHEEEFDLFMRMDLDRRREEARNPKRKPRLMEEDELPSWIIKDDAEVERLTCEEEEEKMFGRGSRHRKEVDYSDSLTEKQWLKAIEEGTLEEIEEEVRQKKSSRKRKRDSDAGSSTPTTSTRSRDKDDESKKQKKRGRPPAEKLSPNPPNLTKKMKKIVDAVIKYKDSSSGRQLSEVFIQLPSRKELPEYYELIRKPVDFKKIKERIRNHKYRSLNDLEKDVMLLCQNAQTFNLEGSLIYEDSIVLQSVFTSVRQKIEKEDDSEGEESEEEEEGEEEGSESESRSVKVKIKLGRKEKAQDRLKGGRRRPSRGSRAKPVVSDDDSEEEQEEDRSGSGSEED
Experimental: as §1
For measurement of BRG1 degradation, a stable HeLa cell line expressing HiBit-BRG1 and LgBit was generated. The same protocol as above was then followed.
as §2

T1 sequence (P51531 whole entry, the tested form may be a part): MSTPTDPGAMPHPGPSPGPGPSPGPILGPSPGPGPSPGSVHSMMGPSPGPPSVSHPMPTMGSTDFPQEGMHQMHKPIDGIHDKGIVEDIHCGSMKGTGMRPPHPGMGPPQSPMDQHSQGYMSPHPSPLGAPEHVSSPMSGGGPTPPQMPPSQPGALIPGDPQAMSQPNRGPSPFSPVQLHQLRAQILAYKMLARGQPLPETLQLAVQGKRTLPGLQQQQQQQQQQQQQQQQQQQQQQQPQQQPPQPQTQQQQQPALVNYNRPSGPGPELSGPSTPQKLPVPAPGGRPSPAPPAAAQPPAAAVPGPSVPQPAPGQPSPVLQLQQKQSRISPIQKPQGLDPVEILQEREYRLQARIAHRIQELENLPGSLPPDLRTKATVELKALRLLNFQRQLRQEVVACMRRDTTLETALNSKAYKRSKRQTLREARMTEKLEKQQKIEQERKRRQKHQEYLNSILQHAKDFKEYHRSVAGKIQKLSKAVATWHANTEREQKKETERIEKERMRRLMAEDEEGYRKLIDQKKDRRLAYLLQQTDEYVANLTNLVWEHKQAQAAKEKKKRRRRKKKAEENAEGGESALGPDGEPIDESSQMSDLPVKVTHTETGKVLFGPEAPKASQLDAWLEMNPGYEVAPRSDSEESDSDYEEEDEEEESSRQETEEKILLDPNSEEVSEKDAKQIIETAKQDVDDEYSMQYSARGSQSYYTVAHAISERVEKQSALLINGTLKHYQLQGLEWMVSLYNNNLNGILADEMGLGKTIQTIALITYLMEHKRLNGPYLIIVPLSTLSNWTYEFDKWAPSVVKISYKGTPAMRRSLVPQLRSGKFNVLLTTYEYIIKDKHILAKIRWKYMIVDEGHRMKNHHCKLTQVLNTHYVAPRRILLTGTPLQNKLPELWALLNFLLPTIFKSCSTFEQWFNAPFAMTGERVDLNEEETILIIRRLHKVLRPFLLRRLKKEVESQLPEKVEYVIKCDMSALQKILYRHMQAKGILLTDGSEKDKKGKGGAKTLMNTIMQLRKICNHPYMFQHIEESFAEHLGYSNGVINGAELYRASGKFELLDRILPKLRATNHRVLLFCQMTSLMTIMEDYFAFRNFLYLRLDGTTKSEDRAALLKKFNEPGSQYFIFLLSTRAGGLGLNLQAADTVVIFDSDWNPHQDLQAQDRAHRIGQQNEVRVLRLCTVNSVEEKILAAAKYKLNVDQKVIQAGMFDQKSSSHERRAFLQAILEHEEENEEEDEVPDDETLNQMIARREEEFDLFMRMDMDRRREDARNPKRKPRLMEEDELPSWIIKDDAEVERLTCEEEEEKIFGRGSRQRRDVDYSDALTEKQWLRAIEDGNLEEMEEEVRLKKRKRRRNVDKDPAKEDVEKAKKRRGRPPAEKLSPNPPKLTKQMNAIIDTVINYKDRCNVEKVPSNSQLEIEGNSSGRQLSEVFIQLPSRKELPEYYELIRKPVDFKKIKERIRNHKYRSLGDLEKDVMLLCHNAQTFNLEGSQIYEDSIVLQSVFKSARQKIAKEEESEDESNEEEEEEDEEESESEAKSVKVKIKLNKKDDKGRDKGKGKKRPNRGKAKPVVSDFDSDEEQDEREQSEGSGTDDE

| Dmax [2] | SMILES | BRM HiBit Degradation Maximum (%) [1] |
| --- | --- | --- |
| < 50% | Nc1nnc(-c2ccccc2O)cc1OCCC12CC(NC(=O)CCN3CCN(c4ccc5c(c4)C(=O)N(C4CCC(=O)NC4=O)C5=O)CC3)(C1)C2 (centres unmarked) [Compound 33, N-(3-(2-((3-amino-6-(2-hydroxyphenyl)pyridazin-4-yl)oxy)ethyl)bicyclo[1.1.1]pentan-1-yl)-3-(4-(2-(2,6-dioxopiperidin-3-yl)-1,3-dioxoisoindolin-5-yl)piperazin-1-yl)propanamide] | C (“C” indicates maximum degradation < 50%) |
| < 50% | Cc1ncsc1-c1ccc(CNC(=O)[C@@H]2C[C@@H](O)CN2C(=O)[C@@H](NC(=O)CCCC(=O)NC23CC(CCOc4cc(-c5ccccc5O)nnc4N)(C2)C3)C(C)(C)C)cc1 [Compound 46, N1-(3-(2-((3-amino-6-(2-hydroxyphenyl)pyridazin-4-yl)oxy)ethyl)bicyclo[1.1.1]pentan-1-yl)-N5-((S)-1-((2S,4R)-4-hydroxy-2-((4-(4-methylthiazol-5-yl)benzyl)carbamoyl)pyrrolidin-1-yl)-3,3-dimethyl-1-oxobutan-2-yl)glutaramide] | B (“B” indicates maximum degradation ≥ 50%) |
| < 50% | Cc1ncsc1-c1ccc(CNC(=O)[C@@H]2C[C@@H](O)CN2C(=O)[C@@H](NC(=O)CCCCCCCC(=O)NC23CC(CCOc4cc(-c5ccccc5O)nnc4N)(C2)C3)C(C)(C)C)cc1 [Compound 44, N1-(3-(2-((3-amino-6-(2-hydroxyphenyl)pyridazin-4-yl)oxy)ethyl)bicyclo[1.1.1]pentan-1-yl)-N9-((S)-1-((2S,4R)-4-hydroxy-2-((4-(4-methylthiazol-5-yl)benzyl)carbamoyl)pyrrolidin-1-yl)-3,3-dimethyl-1-oxobutan-2-yl)nonanediamide] | B (“B” indicates maximum degradation ≥ 50%) |
| < 50% | Nc1nnc(-c2ccccc2O)cc1OCC12CC(C(=O)NCCOCCOCCOCCNC(=O)COc3ccc4c(c3)C(=O)N(C3CCC(=O)NC3=O)C4=O)(C1)C2 (centres unmarked) [Compound 93, 3-(((3-amino-6-(2-hydroxyphenyl)pyridazin-4-yl)oxy)methyl)-N-(1-((2-(2,6-dioxopiperidin-3-yl)-1,3-dioxoisoindolin-5-yl)oxy)-2-oxo-6,9,12-trioxa-3-azatetradecan-14-yl)bicyclo[1.1.1]pentane-1-carboxamide] | C (“C” indicates maximum degradation < 50%) |
| < 50% | Cc1ncsc1-c1ccc(CNC(=O)[C@@H]2C[C@@H](O)CN2C(=O)[C@@H](NC(=O)CCCCCNC(=O)C23CC(COc4cc(-c5ccccc5O)nnc4N)(C2)C3)C(C)(C)C)cc1 [Compound 70, (2S,4R)-1-((S)-2-(6-(3-(((3-amino-6-(2-hydroxyphenyl)pyridazin-4-yl)oxy)methyl)bicyclo[1.1.1]pentane-1-carboxamido)hexanamido)-3,3-dimethylbutanoyl)-4-hydroxy-N-(4-(4-methylthiazol-5-yl)benzyl)pyrrolidine-2-carboxamide] | B (“B” indicates maximum degradation ≥ 50%) |
| < 50% | Nc1nnc(-c2ccccc2O)cc1OCC12CC(CNC(=O)CCOCCOCCOc3ccc4c(c3)C(=O)N(C3CCC(=O)NC3=O)C4=O)(C1)C2 (centres unmarked) [Compound 1, N-[[3-([[3-amino-6-(2-hydroxyphenyl)pyridazin-4-yl]oxy]methyl)bicyclo[1.1.1]pentan-1-yl]methyl]-3-[2-(2-[[2-(2,6-dioxopiperidin-3-yl)-1,3-dioxoisoindol-5-yl]oxy]ethoxy)ethoxy]propanamide] | C (“C” indicates maximum degradation < 50%) |
| < 50% | Nc1nnc(-c2ccccc2O)cc1OCC12CC(CNC(=O)CCCOc3cccc4c3C(=O)N(C3CCC(=O)NC3=O)C4=O)(C1)C2 (centres unmarked) [Compound 2, N-[[3-([[3-amino-6-(2-hydroxyphenyl)pyridazin-4-yl]oxy]methyl)bicyclo[1.1.1]pentan-1-yl]methyl]-4-[[2-(2,6-dioxopiperidin-3-yl)-1,3-dioxoisoindol-4-yl]oxy]butanamide] | C (“C” indicates maximum degradation < 50%) |
| < 50% | Nc1nnc(-c2ccccc2O)cc1OCC12CC(CNC(=O)CCCCCCCCCCNc3ccc4c(c3)C(=O)N(C3CCC(=O)NC3=O)C4=O)(C1)C2 (centres unmarked) [Compound 10, N-[[3-([[3-amino-6-(2-hydroxyphenyl)pyridazin-4-yl]oxy]methyl)bicyclo[1.1.1]pentan-1-yl]methyl]-11-[[2-(2,6-dioxopiperidin-3-yl)-1,3-dioxoisoindol-5-yl]amino]undecanamide] | C (“C” indicates maximum degradation < 50%) |
| < 50% | Nc1nnc(-c2ccccc2O)cc1OCC12CC(C(=O)N3CCN(CCOc4ccc5c(c4)C(=O)N(C4CCC(=O)NC4=O)C5=O)CC3)(C1)C2 (centres unmarked) [Compound 103, 5-(2-(4-(3-(((3-amino-6-(2-hydroxyphenyl)pyridazin-4-yl)oxy)methyl)bicyclo[1.1.1]pentane-1-carbonyl)piperazin-1-yl)ethoxy)-2-(2,6-dioxopiperidin-3-yl)isoindoline-1,3-dione; formic acid] | C (“C” indicates maximum degradation < 50%) |
| < 50% | Nc1nnc(-c2ccccc2O)cc1OCC12CC(CNC(=O)CCOCCOCCOc3cccc4c3C(=O)N(C3CCC(=O)NC3=O)C4=O)(C1)C2 (centres unmarked) [Compound 14, N-((3-(((3-amino-6-(2-hydroxyphenyl)pyridazin-4-yl)oxy)methyl)bicyclo[1.1.1]pentan-1-yl)methyl)-3-(2-(2-((2-(2,6-dioxopiperidin-3-yl)-1,3-dioxoisoindolin-4-yl)oxy)ethoxy)ethoxy)propanamide] | C (“C” indicates maximum degradation < 50%) |
| < 50% | Nc1nnc(-c2ccccc2O)cc1OCCC12CC(NC(=O)C3CC3CNC(=O)COc3cccc4c3C(=O)N(C3CCC(=O)NC3=O)C4=O)(C1)C2 (centres unmarked) [Compound 28, N-[3-(2-[[3-amino-6-(2-hydroxyphenyl)pyridazin-4-yl]oxy]ethyl)bicyclo[1.1.1]pentan-1-yl]-2-[(2-[[2-(2,6-dioxopiperidin-3-yl)-1,3-dioxoisoindol-4-yl]oxy]acetamido)methyl]cyclopropane-1-carboxamide] | C (“C” indicates maximum degradation < 50%) |
| < 50% | Cc1ncsc1-c1ccc(CNC(=O)[C@@H]2C[C@@H](O)CN2C(=O)[C@@H](NC(=O)CCCCCCCCCC(=O)NCC23CC(COc4cc(-c5ccccc5O)nnc4N)(C2)C3)C(C)(C)C)cc1 [Compound 39, N1-((3-(((3-amino-6-(2-hydroxyphenyl)pyridazin-4-yl)oxy)methyl)bicyclo[1.1.1]pentan-1-yl)methyl)-N11-((S)-1-((2S,4R)-4-hydroxy-2-((4-(4-methylthiazol-5-yl)benzyl)carbamoyl)pyrrolidin-1-yl)-3,3-dimethyl-1-oxobutan-2-yl)undecanediamide] | B (“B” indicates maximum degradation ≥ 50%) |
| < 50% | Cc1ncsc1-c1ccc(CNC(=O)[C@@H]2C[C@@H](O)CN2C(=O)[C@@H](NC(=O)CCCCCCCCCCCCCCC(=O)NCC23CC(COc4cc(-c5ccccc5O)nnc4N)(C2)C3)C(C)(C)C)cc1 [Compound 41, N1-((3-(((3-amino-6-(2-hydroxyphenyl)pyridazin-4-yl)oxy)methyl)bicyclo[1.1.1]pentan-1-yl)methyl)-N16-((S)-1-((2S,4R)-4-hydroxy-2-((4-(4-methylthiazol-5-yl)benzyl)carbamoyl)pyrrolidin-1-yl)-3,3-dimethyl-1-oxobutan-2-yl)hexadecanediamide] | B (“B” indicates maximum degradation ≥ 50%) |
| < 50% | Nc1nnc(-c2ccccc2O)cc1OCC12CC(C(=O)N3CCC(CN4CCN(c5ccc6c(c5)C(=O)N(C5CCC(=O)NC5=O)C6=O)CC4)CC3)(C1)C2 (centres unmarked) [Compound 101, 5-(4-((1-(3-(((3-amino-6-(2-hydroxyphenyl)pyridazin-4-yl)oxy)methyl)bicyclo[1.1.1]pentane-1-carbonyl)piperidin-4-yl)methyl)piperazin-1-yl)-2-(2,6-dioxopiperidin-3-yl)isoindoline-1,3-dione] | B (“B” indicates maximum degradation ≥ 50%) |
| < 50% | Nc1nnc(-c2ccccc2O)cc1OCC12CC(C(=O)NCCNc3ccc4c(c3)C(=O)N(C3CCC(=O)NC3=O)C4=O)(C1)C2 (centres unmarked) [Compound 56, 3-(((3-amino-6-(2-hydroxyphenyl)pyridazin-4-yl)oxy)methyl)-N-(2-((2-(2,6-dioxopiperidin-3-yl)-1,3-dioxoisoindolin-5-yl)amino)ethyl)bicyclo[1.1.1]pentane-1-carboxamide] | C (“C” indicates maximum degradation < 50%) |
| < 50% | Cc1ncsc1-c1ccc(CNC(=O)[C@@H]2C[C@@H](O)CN2C(=O)[C@@H](NC(=O)CCCCCCCCCCCCC(=O)NC23CC(CCOc4cc(-c5ccccc5O)nnc4N)(C2)C3)C(C)(C)C)cc1 [Compound 49, N1-(3-(2-((3-amino-6-(2-hydroxyphenyl)pyridazin-4-yl)oxy)ethyl)bicyclo[1.1.1]pentan-1-yl)-N14-((S)-1-((2S,4R)-4-hydroxy-2-((4-(4-methylthiazol-5-yl)benzyl)carbamoyl)pyrrolidin-1-yl)-3,3-dimethyl-1-oxobutan-2-yl)tetradecanediamide] | C (“C” indicates maximum degradation < 50%) |
